# Test results: ChEMBL document CHEMBL1128937, “Coumarin-based prodrugs 2. Synthesis and bioreversibility studies of an esterase-sensitive cyclic prodrug of dadle, an opioid peptide” (Bioorg Med Chem Lett, 1996)
# Tested on: esterase
# Assay: Half-life time was determined for esterase-catalyzed hydrolysis of the phenol ester bond in porcine liver esterase
# Type: ADME, Sus scrofa
# Conditions: pig
smiles,measurement,value
CC(C)C[C@H]1NC(=O)Oc2ccccc2/C=C\C(=O)NC(=O)[C@H](Cc2ccc(O)cc2)NC(=O)[C@@H](C)NC(=O)CNC(=O)[C@H](Cc2ccccc2)NC1=O,half-life,12.7 h
